Where two headings read alike, the source gives them in different places. One block for each compound: values may come before it. Residues, ends and D or L forms follow the SMILES beside them.
Assays:
[1] = tested on: G-protein only (control w/o tetracycline); assay: Fluo-4 calcium assay, G-protein only control w/o tetracycline (TAS2R38 cell line); format: cell-based; settings: Gα16gustducin44, ligand 250 μM
Source text: (§1) The following results were obtained:

[2] = biological target: T1, human TAS2R38 (Homo sapiens, UniProt P59533); assay: Fluo-4 calcium assay, tetracycline-inducible cells stably expressing human TAS2R38 and G16gust44; format: cell-based; settings: ligand 250 μM; for fluorescence signal (in words): HEK293 T-Rex cells, TAS2R38, G16-gustducin 44
T1 construct: expressed in transfected cells
T1 sequence (P59533 1-333): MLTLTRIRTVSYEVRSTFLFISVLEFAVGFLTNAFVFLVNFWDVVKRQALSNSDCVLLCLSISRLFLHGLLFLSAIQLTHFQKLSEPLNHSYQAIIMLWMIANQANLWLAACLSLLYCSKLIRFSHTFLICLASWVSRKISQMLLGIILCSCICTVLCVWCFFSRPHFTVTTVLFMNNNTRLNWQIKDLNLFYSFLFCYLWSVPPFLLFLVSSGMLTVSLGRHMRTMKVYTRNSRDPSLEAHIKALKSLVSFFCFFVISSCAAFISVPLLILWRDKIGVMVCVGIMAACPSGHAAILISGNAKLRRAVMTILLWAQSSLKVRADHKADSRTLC
Source text: as §1

[3] = tested on: sham transfected (control); assay: Fluo-4 calcium assay, sham transfected control cells of Table 7; format: cell-based
Method: (§2) At day 0, cells stably expressing the G-protein are plated in a 6-well plate at a density of 800,000-950,000 cells per well and grown overnight in selective growth media. On day 1, the media is changed to an antibiotic-free growth media and the cells are transfected using 2 μg of T1 R2 and 2 μg of T1 R3 cDNA and 10 μl of Lipofectamine 2000 (Invitrogen). The cells are maintained overnight in antibiotic-free growth media. On day 2, the cells are replated into a black, clear-bottom 96 well plate at 20,000 cells per well and grown overnight. The morning of the calcium assay, the media is replaced with low glucose media supplemented with Glutamax and dialyzed FBS to minimize receptor desensitization by sugars and glutamate. The cells are further incubated in this media for 6 hours at 37 degrees C. At the end of this period, the cells are processed for the calcium assay according to conditions described above.
(§3) Following the methodology as described in Example 5 the following results were obtained: […]

[4] = biological target: T2, human TAS1R2/TAS1R3 (Homo sapiens, UniProt Q7RTX0+Q8TE23); assay: Fluo-4 calcium assay, cells transfected with human sweet receptor TAS1R2/TAS1R3 and expressing a promiscuous G-protein; format: cell-based; settings: for fluorescence signal with Gα16-gustducin 44, times stronger than wild-type Gα16: HEK293T cells; for fluorescence signal with Gα16-gustducin 44, times stronger than wild-type Gα16 / fluorescence signal (in words): ligand 2.5 mM
T2 construct: expressed in transfected cells; host or cells: HEK293T cells stably expressing the G-protein, co-transfected with T1R2 and T1R3 cDNA
T2 sequence (Q8TE23 20-839): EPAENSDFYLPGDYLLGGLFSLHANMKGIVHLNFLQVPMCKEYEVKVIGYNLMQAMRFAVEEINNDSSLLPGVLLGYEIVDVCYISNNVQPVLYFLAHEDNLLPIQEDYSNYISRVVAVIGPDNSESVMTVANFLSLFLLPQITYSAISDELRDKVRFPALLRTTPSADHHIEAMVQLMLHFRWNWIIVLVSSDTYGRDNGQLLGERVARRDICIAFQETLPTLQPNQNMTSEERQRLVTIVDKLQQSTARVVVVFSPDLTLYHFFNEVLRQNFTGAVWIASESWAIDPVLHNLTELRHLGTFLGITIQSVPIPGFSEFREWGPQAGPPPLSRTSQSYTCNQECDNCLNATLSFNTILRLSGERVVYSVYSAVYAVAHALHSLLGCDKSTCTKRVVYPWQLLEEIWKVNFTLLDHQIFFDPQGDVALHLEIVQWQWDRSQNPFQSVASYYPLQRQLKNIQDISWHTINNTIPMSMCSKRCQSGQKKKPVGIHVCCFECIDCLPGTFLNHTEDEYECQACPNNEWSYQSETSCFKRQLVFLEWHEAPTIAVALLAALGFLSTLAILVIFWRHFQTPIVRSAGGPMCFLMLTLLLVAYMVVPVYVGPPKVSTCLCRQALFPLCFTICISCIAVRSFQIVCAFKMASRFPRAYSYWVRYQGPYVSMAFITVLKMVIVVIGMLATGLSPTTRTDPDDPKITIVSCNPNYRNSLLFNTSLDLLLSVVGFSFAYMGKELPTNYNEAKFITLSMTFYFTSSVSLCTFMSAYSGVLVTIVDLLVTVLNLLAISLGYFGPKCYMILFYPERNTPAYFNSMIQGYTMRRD
T2 sequence (Q7RTX0 21-852): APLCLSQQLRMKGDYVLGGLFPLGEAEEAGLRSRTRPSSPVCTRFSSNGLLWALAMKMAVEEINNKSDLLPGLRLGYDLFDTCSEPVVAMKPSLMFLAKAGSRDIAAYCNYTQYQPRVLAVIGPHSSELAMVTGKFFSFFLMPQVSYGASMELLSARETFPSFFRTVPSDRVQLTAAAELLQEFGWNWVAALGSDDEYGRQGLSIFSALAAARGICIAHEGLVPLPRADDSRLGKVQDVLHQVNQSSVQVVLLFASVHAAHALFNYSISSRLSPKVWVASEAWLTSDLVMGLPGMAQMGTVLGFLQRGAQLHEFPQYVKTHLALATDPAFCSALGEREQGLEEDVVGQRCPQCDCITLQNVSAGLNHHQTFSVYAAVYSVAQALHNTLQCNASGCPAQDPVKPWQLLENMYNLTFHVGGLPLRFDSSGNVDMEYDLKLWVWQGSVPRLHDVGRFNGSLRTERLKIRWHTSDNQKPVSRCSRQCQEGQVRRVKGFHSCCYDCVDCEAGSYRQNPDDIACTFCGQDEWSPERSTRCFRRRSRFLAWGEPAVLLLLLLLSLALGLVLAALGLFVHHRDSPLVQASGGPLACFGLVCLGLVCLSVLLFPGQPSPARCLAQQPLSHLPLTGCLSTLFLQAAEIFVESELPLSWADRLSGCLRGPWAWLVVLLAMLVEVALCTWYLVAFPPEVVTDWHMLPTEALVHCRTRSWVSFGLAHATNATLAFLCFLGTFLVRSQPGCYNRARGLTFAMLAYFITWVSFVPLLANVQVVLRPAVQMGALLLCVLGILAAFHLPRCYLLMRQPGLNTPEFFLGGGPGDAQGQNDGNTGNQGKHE
Method: as §2, §3

[5] = tested on: sham transfected (control); assay: Fluo-4 calcium assay, sham transfected control cells of Table 1; format: cell-based
Method: (§4) At day 0, cells stably expressing the G-protein are plated in black, clear-bottom 96-well plate at 20,000 cells per well and grown overnight in selective growth media. On day 1, the media is changed to an antibiotic-free growth media and the cells are transfected using 300 ng GPCR DNA and 0.6 μl of Lipofectamine 2000 (Invitrogen). The cells are grown overnight and processed the next day using the Fluo-4 calcium assay conditions described in Example 2 above.

[6] = biological target: T3, human TAS2R16 (Homo sapiens, UniProt Q9NYV7); assay: Fluo-4 calcium assay, cells transiently transfected with human TAS2R16 and expressing a promiscuous G-protein; format: cell-based; settings: ligand 5 mM; for fluorescent signal with Gα16-gustducin 44, times stronger than reference chimeric G-protein Gα16-z44 / fluorescent signal with Gα16-gustducin 44, times stronger than wild-type Gα16: HEK293T cells, Flexstation; for fluorescent signal with Gα16-gustducin 44, times stronger than reference chimeric G-protein Gα16-z44 / fluorescent signal with Gα16-gustducin 44, times stronger than wild-type Gα16 / fluorescent signal (in words): TAS2R16; for increase in mean fluorescence over baseline following ligand addition: human TAS2R16
T3 construct: expressed in transfected cells; host or cells: HEK293T cells stably expressing Gα16gustducin44, Gα16 or Gα16z44
T3 sequence (Q9NYV7 1-291): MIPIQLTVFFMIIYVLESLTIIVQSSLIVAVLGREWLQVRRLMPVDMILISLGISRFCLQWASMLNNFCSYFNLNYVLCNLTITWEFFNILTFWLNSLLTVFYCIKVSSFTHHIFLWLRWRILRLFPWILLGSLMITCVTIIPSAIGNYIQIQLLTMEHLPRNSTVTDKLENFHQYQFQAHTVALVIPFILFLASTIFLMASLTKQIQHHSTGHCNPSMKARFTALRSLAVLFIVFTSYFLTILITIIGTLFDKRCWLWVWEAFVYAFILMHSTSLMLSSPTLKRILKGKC
Method: The protocol is described in “G-protein coupled receptors (Signal Transduction Series)”; Editors: Tatsuya Haga and Gabriel Berstein, 1st ed., 424 pp.CRC Press—Boca Raton, Fla.; September 1999, and may be summarised as follows: • 1. Day 0: 96-well plates are seeded with 20K cells per well and maintained at 37 degrees C. overnight in nutritive growth media. • 2. Day 1: Cells are transfected using 300 ng of GPCR DNA and 0.6 μl of Lipofectamine 2000 (Invitrogen) per well. Transfected cells are and maintained at 37 degrees C. overnight in nutritive growth media. • 3.
as §4

[7] = tested on: G-protein only (control w/o tetracycline); settings: Gα16gustducin44, ligand 250 μM
Method: All assays are performed using black, clear-bottom 96-well plates that have been seeded the day before with 20K transfected cells per well and have been maintained at 37 degrees C. overnight in appropriate growth media. At the time of the assay, the growth media is discarded and cells are incubated for 1 hour (at room temperature in the dark) with 75 μl of a calcium assay solution consisting of 1.5 μM Fluo-4 AM (Molecular Probes) and 2.5 mM probenicid (Sigma-Aldrich) dissolved in a Hanks balanced salts solution (HBSS) that has been supplemented with 10 mM Hepes, 200 μM calcium chloride and 0.1% bovine serum albumin, pH 7.4 at 37 degrees C. […] For assay reading, the plate is placed in a fluorescent microplate reader, for example the Flexstation (Molecular Devices), and receptor activation is initiated following addition of 20 μl of a 10× concentrated ligand stock solution. Fluorescence is continuously monitored for 15 seconds prior to ligand addition and for 45-75 seconds after ligand addition. Receptor activation levels are defined as by the two following equations: % Activation=(Maximum fluorescence−baseline fluorescence/baseline fluorescence)*100 or Fluorescence Increase=Maximum Fluorescence—baseline fluorescence, where baseline fluorescence represents the average fluorescence levels prior to ligand addition. […]

[8] = biological target: T4, mouse T2R5 (Mus musculus, UniProt Q9JKT4); assay: Fluo-4 calcium assay, cells transfected with mouse bitter receptor T2R5 and expressing a promiscuous G-protein; format: cell-based; settings: for increase in mean fluorescence over baseline following ligand addition: ligand 10 μM
T4 construct: expressed in transfected cells; host or cells: HEK293T cells stably expressing Gα16gustducin44 or Gα16
T4 sequence (Q9JKT4 1-300): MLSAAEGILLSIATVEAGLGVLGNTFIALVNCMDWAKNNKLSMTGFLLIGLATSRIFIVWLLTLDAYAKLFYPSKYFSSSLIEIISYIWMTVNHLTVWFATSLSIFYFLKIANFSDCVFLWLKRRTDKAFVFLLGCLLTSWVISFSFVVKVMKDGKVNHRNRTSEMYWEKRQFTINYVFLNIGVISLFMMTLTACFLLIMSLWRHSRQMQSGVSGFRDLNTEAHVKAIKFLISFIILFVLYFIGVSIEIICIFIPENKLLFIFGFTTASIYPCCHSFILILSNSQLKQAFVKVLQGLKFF
Method: as §4, §3

[9] = tested on: sham transfected (control); assay: Fluo-4 calcium assay, sham transfected control cells of Table 2; format: cell-based
Method: as §4, §3

[10] = G-protein Gα16gustducin44, ligand 2.5 mM

SMILES: NC(=S)Nc1ccccc1 [phenylthiocarbamide]
- increase in mean fluorescence over baseline following ligand addition [1]: 3422 RFUs
- increase in mean fluorescence over baseline following ligand addition ([2]; G-protein + human TAS2R38 (with tetracycline), Gα16gustducin44): 8989 RFUs
- fluorescence signal (in words) [2]: robust fluorescence signal

SMILES: O=C1C[C@@H]2OCC=C3CN4CC[C@]56c7ccccc7N1[C@H]5[C@H]2[C@H]3C[C@H]46 [strychnine]
- increase in mean fluorescence over baseline following ligand addition [7]: 13238 RFUs

SMILES: CC1=CC(=O)[N-]S(=O)(=O)O1.[K+] [acesulfame K]
- fluorescence signal with Gα16-gustducin 44, times stronger than wild-type Gα16 [4]: 2 times
- fluorescence signal (in words) [4]: robust flurorescence signal

SMILES: C[C@@H]1C[C@@H]([C@H](O)CC2CC(=O)NC(=O)C2)C(=O)[C@@H](C)C1 [cycloheximide]
- fluorescence signal (in words) ([8]; HEK293T cells, mouse T2R5, Gα16-gustducin 44, ligand 10 uM): robust flurorescence signal
- fluorescence signal with Gα16-gustducin 44, times stronger than wild-type Gα16 ([8]; HEK293T cells, mouse T2R5, ligand 10 uM): 5 times
- increase in mean fluorescence over baseline following ligand addition ([8]; mouse T2R5, G-protein Gα16): 2569 RFUs
- increase in mean fluorescence over baseline following ligand addition ([8]; mouse T2R5, G-protein Gα16gustducin44): 10407 RFUs
- increase in mean fluorescence over baseline following ligand addition ([9]; G-protein Gα16, ligand 10 μM): 1705 RFUs
- increase in mean fluorescence over baseline following ligand addition ([9]; G-protein Gα16gustducin44, ligand 10 μM): 3989 RFUs

Second part, led by results:

- increase in mean fluorescence over baseline following ligand addition ([4]; G-protein Gα15, ligand 2.5 mM): 1300 RFUs
- increase in mean fluorescence over baseline following ligand addition [4, 10]: 4617 RFUs
- fluorescence signal with Gα16-gustducin 44, times stronger than wild-type Gα16 [4]: 2 times
- fluorescence signal (in words) [4]: robust flurorescence signal
SMILES: OC[C@H]1O[C@H](O[C@]2(CCl)O[C@H](CCl)[C@@H](O)[C@@H]2O)[C@H](O)[C@@H](O)[C@H]1Cl [sucralose]
- increase in mean fluorescence over baseline following ligand addition ([3]; G-protein Gα15, ligand 2.5 mM): 643 RFUs
- increase in mean fluorescence over baseline following ligand addition [3, 10]: 1370 RFUs

- fluorescence signal (in words) [2]: robust response
SMILES: CCCc1cc(=O)[nH]c(=S)[nH]1 [propythiouracil]

- fluorescent signal with Gα16-gustducin 44, times stronger than reference chimeric G-protein Gα16-z44 [6]: about 3 times
- fluorescent signal with Gα16-gustducin 44, times stronger than wild-type Gα16 [6]: about 7 times
- fluorescent signal (in words) [6]: robust fluorescent signal
- receptor activation following ligand stimulation, Gα16gustducin44 cells compared with Gα16 cells (in words) ([6]; hTAS2R16): greater degree of receptor activation
- increase in mean fluorescence over baseline following ligand addition ([6]; G-protein Gα16): 3494 RFUs
- increase in mean fluorescence over baseline following ligand addition ([6]; G-protein Gα16gustducin44): 23821 RFUs
- increase in mean fluorescence over baseline following ligand addition ([6]; G-protein Gα16z44): 8296 RFUs
SMILES: OC[C@H]1O[C@@H](Oc2ccccc2)[C@H](O)[C@@H](O)[C@@H]1O [phenyl-β-D-glucopyranoside]
- increase in mean fluorescence over baseline following ligand addition ([5]; G-protein Gα16, ligand 5 mM): 1024 RFUs
- increase in mean fluorescence over baseline following ligand addition ([5]; G-protein Gα16gustducin44, ligand 5 mM): 2162 RFUs
- increase in mean fluorescence over baseline following ligand addition ([5]; G-protein Gα16z44, ligand 5 mM): 1541 RFUs

- fluorescent signal with Gα16-gustducin 44, times stronger than reference chimeric G-protein Gα16-z44 [6]: about 3 times
- fluorescent signal with Gα16-gustducin 44, times stronger than wild-type Gα16 [6]: about 7 times
- fluorescent signal (in words) [6]: robust fluorescent signal
SMILES: OCc1ccccc1O[C@@H]1O[C@H](CO)[C@@H](O)[C@H](O)[C@H]1O [salicin]

- fluorescence signal with Gα16-gustducin 44, times stronger than wild-type Gα16 [4]: 2 times
- fluorescence signal (in words) [4]: robust flurorescence signal
SMILES: COC(=O)[C@H](Cc1ccccc1)NC(=O)[C@@H](N)CC(=O)O [aspartame] (H-Asp-Phe-OMe)
